Legend:
Assay type in all cases: in vivo
Matricaria inodora [1] = assay: Pre-emergence herbicidal test, MATIN; design: key to herbicidal effect (0-9 scale) MATIN / herbicidal rating MATIN: A rating 0 indicates growth as untreated control; a rating 9 indicates death; settings: PRE, 0-9 scale, 21 days after spraying
Experimental: (§1) To evaluate their herbicidal activity, compounds according to the invention are tested using a representative range of plants:
(§2) The pre-emergence tests involve spraying a liquid formulation of the compound onto the soil in which the seeds of the plant species mentioned above has recently been sown.
(§3) The soil used in the tests is a prepared horticultural loam. The formulations used in the tests are prepared from solutions of the test compounds in acetone containing 0.4% by weight of an alkylphenol/ethylene oxide condensate available under the trade mark TRITON X-155. […] In these tests untreated sown soil are used as controls.
(§4) The herbicidal effects of the test compounds are assessed visually twenty-one days after spraying the foliage and the soil and are recorded on a 0-9 scale. A rating 0 indicates growth as untreated control, a rating 9 indicates death. An increase of 1 unit on the linear scale approximates to a 10% increase in the level of effect.

Stellaria media [2] = assay: Pre-emergence herbicidal test, STEME; design: key to herbicidal effect (0-9 scale) STEME / herbicidal rating STEME: A rating 0 indicates growth as untreated control; a rating 9 indicates death; settings: PRE, 0-9 scale, 21 days after spraying
Experimental: as §1, §2, §3, §4

Zea mays [3] = assay: Pre-emergence herbicidal test, ZEAMX; design: key to herbicidal effect (0-9 scale) ZEAMX / herbicidal rating ZEAMX: A rating 0 indicates growth as untreated control; a rating 9 indicates death; settings: for herbicidal rating ZEAMX: PRE, 0-9 scale, 21 days after spraying
Experimental: as §1, §2, §3, §4

Setaria viridis [4] = assay: Post-emergence herbicidal test, SETVI; design: key to herbicidal effect (0-9 scale) SETVI / herbicidal rating SETVI: A rating 0 indicates growth as untreated control; a rating 9 indicates death; settings: POST, 0-9 scale, 21 days after spraying
Experimental: as §1
(§5) […] After spraying, the plants are placed on greenhouse benches and are cared for in the usual manner, commensurate with conventional greenhouse practices.
as §4

Ipomoea hederacea [5] = assay: Post-emergence herbicidal test, IPOHE; design: key to herbicidal effect (0-9 scale) IPOHE / herbicidal rating IPOHE: A rating 0 indicates growth as untreated control; a rating 9 indicates death; settings: POST, 0-9 scale, 21 days after spraying
Experimental: as §1, §5, §4

Glycine max [6] = assay: Pre-emergence herbicidal test, GLXMA; design: key to herbicidal effect (0-9 scale) GLXMA / herbicidal rating GLXMA: A rating 0 indicates growth as untreated control; a rating 9 indicates death; settings: for herbicidal rating GLXMA: PRE, 0-9 scale, 21 days after spraying
Experimental: as §1, §2, §3, §4

[7] = test system: representative range of plants; assay: Herbicidal activity, pre- and post-emergence, overall; settings: both in pre- and post-emergence
Experimental: as §1, §2
The soil used in the tests is a prepared horticultural loam. The formulations used in the tests are prepared from solutions of the test compounds in acetone containing 0.4% by weight of an alkylphenol/ethylene oxide condensate available under the trade mark TRITON X-155. These acetone solutions are diluted with water and the resulting formulations applied at dosage levels corresponding to 1000 g and 250 g/ha of active material per hectare in a volume equivalent to 900 litres per hectare. In these tests untreated sown soil are used as controls.
These acetone solutions are diluted with water and the resulting formulations applied at dosage levels equivalent to about 1000, 800, 400, 250 or 100 g/ha per hectare of test compound per pot. After spraying, the plants are placed on greenhouse benches and are cared for in the usual manner, commensurate with conventional greenhouse practices.
as §4

[8] = test system: representative range of plants; assay: Post-emergence herbicidal test, summary over the plants tested
Experimental: as §1, §5, §4

Matricaria inodora [9] = assay: Post-emergence herbicidal test, MATIN; design: key to herbicidal effect (0-9 scale) MATIN / herbicidal rating MATIN: A rating 0 indicates growth as untreated control; a rating 9 indicates death; settings: POST, 0-9 scale, 21 days after spraying
Experimental: as §1, §5, §4

Glycine max [10] = assay: Post-emergence herbicidal test, GLXMA; design: key: A rating 0 indicates growth as untreated control; a rating 9 indicates death; settings: 0-9 scale, 21 days after spraying
Experimental: as §1, §5, §4

Galium aparine [11] = assay: Post-emergence herbicidal test, GALAP; design: key to herbicidal effect (0-9 scale) GALAP / herbicidal rating GALAP: A rating 0 indicates growth as untreated control; a rating 9 indicates death; settings: POST, 0-9 scale, 21 days after spraying
Experimental: as §1, §5, §4

Alopecurus myosuroides [12] = assay: Post-emergence herbicidal test, ALOMY; design: key: A rating 0 indicates growth as untreated control; a rating 9 indicates death; settings: 0-9 scale, 21 days after spraying
Experimental: as §1, §5, §4

Setaria viridis [13] = assay: Pre-emergence herbicidal test, SETVI; design: key to herbicidal effect (0-9 scale) SETVI / herbicidal rating SETVI: A rating 0 indicates growth as untreated control; a rating 9 indicates death; settings: PRE, 0-9 scale, 21 days after spraying
Experimental: as §1, §2, §3, §4

Stellaria media [14] = assay: Post-emergence herbicidal test, STEME; design: key to herbicidal effect (0-9 scale) STEME / herbicidal rating STEME: A rating 0 indicates growth as untreated control; a rating 9 indicates death; settings: POST, 0-9 scale, 21 days after spraying
Experimental: as §1, §5, §4

Alopecurus myosuroides [15] = assay: Pre-emergence herbicidal test, ALOMY; design: key to herbicidal effect (0-9 scale) ALOMY / herbicidal rating ALOMY: A rating 0 indicates growth as untreated control; a rating 9 indicates death; settings: for herbicidal rating ALOMY: PRE, 0-9 scale, 21 days after spraying
Experimental: as §1, §2, §3, §4

[16] = test system: representative range of plants; assay: Pre-emergence herbicidal test, summary over the plants tested; settings: 100 g/ha
Experimental: as §1, §2, §3, §4

Abutilon theophrasti [17] = assay: Post-emergence herbicidal test, ABUTH; design: key to herbicidal effect (0-9 scale) ABUTH / herbicidal rating ABUTH: A rating 0 indicates growth as untreated control; a rating 9 indicates death; settings: POST, 0-9 scale, 21 days after spraying
Experimental: as §1, §5, §4

Echinochloa crus-galli [18] = assay: Post-emergence herbicidal test, ECHCG; design: key: A rating 0 indicates growth as untreated control; a rating 9 indicates death; settings: 0-9 scale, 21 days after spraying
Experimental: as §1, §5, §4

Galium aparine [19] = assay: Pre-emergence herbicidal test, GALAP; design: key to herbicidal effect (0-9 scale) GALAP / herbicidal rating GALAP: A rating 0 indicates growth as untreated control; a rating 9 indicates death; settings: PRE, 0-9 scale, 21 days after spraying
Experimental: as §1, §2, §3, §4

Abutilon theophrasti [20] = assay: Pre-emergence herbicidal test, ABUTH; design: key to herbicidal effect (0-9 scale) ABUTH / herbicidal rating ABUTH: A rating 0 indicates growth as untreated control; a rating 9 indicates death; settings: PRE, 0-9 scale, 21 days after spraying
Experimental: as §1, §2, §3, §4

Ipomoea hederacea [21] = assay: Pre-emergence herbicidal test, IPOHE; design: key: A rating 0 indicates growth as untreated control; a rating 9 indicates death; settings: 0-9 scale, 21 days after spraying
Experimental: as §1, §2, §3, §4

Echinochloa crus-galli [22] = assay: Pre-emergence herbicidal test, ECHCG; design: key: A rating 0 indicates growth as untreated control; a rating 9 indicates death; settings: 0-9 scale, 21 days after spraying
Experimental: as §1, §2, §3, §4

Zea mays [23] = assay: Post-emergence herbicidal test, ZEAMX; design: key: A rating 0 indicates growth as untreated control; a rating 9 indicates death; settings: 0-9 scale, 21 days after spraying
Experimental: as §1, §5, §4

In the case of `Cn1c(C(F)(F)F)cc(=O)n(-n2ncc3c(Cl)cccc32)c1=O` [Example 168, 3-(4-Chloro-1-indazol-1-yl)-1-methyl-6trifluoromethylpyrimidine-2,4-dione], the “herbicidal rating MATIN” value (Matricaria inodora [1]; 12.5 g/ha) is reported as 8, the “herbicidal rating MATIN” value (Matricaria inodora [1]; 25 g/ha) is reported as 8 and the “herbicidal rating MATIN” value (Matricaria inodora [1]; 100 g/ha) is reported as 9. For the same molecule, the “herbicidal rating STEME” value (Stellaria media [2]; 12.5 g/ha) was 1, the “herbicidal rating STEME” value (Stellaria media [2]; 25 g/ha) was 3 and the “herbicidal rating STEME” value (Stellaria media [2]; 100 g/ha) was 9. The “herbicidal rating ZEAMX” value (Zea mays [3]; 12.5 g/ha) was 0, the “herbicidal rating ZEAMX” value (Zea mays [3]; 25 g/ha) was 0 and the “herbicidal rating ZEAMX” value (Zea mays [3]; 100 g/ha) was 1. For the same molecule, the “selectivity in maize” value (Zea mays [3]; pre-emergence, 100 g/ha) was “Surprisingly good selectivity”, the “herbicidal rating SETVI” value (Setaria viridis [4]; 12.5 g/ha) was 6 and the “herbicidal rating SETVI” value (Setaria viridis [4]; 25 g/ha) was 7. For the same molecule, the “herbicidal rating SETVI” value (Setaria viridis [4]; 100 g/ha) was 9, the “herbicidal rating IPOHE” value (Ipomoea hederacea [5]; 12.5 g/ha) was 9 and the “herbicidal rating IPOHE” value (Ipomoea hederacea [5]; 25 g/ha) was 9. For the same molecule, the “herbicidal rating IPOHE” value (Ipomoea hederacea [5]; 100 g/ha) was 9, the “herbicidal rating GLXMA” value (Glycine max [6]; 12.5 g/ha) was 0 and the “herbicidal rating GLXMA” value (Glycine max [6]; 25 g/ha) was 0. For the same molecule, the “herbicidal rating GLXMA” value (Glycine max [6]; 100 g/ha) was 0, the “selectivity in soy beans” value (Glycine max [6]; pre-emergence, 100 g/ha) was “Surprisingly good selectivity” and the “herbicidal performance” value [7] was “good performance”. For the same molecule, the “control of broadleaf weeds” value ([8]; 12.5 g/ha) was “all broadleaf weeds were still well controlled”, the “control of the weeds” value ([8]; 100 g/ha) was “good cross spectrum control on both broadleaf weeds and grasses except Alopecurus and Echinochloa” and the “herbicidal rating MATIN” value (Matricaria inodora [9]; 12.5 g/ha) was 8. The “herbicidal rating MATIN” value (Matricaria inodora [9]; 25 g/ha) was 9, the “herbicidal rating MATIN” value (Matricaria inodora [9]; 100 g/ha) was 9 and the “herbicidal rating GLXMA” value (Glycine max [10]; 12.5 g/ha) was 5. The “herbicidal rating GLXMA” value (Glycine max [10]; 25 g/ha) was 6, the “herbicidal rating GLXMA” value (Glycine max [10]; 100 g/ha) was 9 and the “herbicidal rating GALAP” value (Galium aparine [11]; 12.5 g/ha) was 9. For the same molecule, the “herbicidal rating GALAP” value (Galium aparine [11]; 25 g/ha) was 9, the “herbicidal rating GALAP” value (Galium aparine [11]; 100 g/ha) was 9 and the “herbicidal rating ALOMY” value (Alopecurus myosuroides [12]; 12.5 g/ha) was 0. The “herbicidal rating ALOMY” value (Alopecurus myosuroides [12]; 25 g/ha) was 1, the “herbicidal rating ALOMY” value (Alopecurus myosuroides [12]; 100 g/ha) was 3 and the “herbicidal rating SETVI” value (Setaria viridis [13]; 12.5 g/ha) was 2. The “herbicidal rating SETVI” value (Setaria viridis [13]; 25 g/ha) was 5, the “herbicidal rating SETVI” value (Setaria viridis [13]; 100 g/ha) was 9 and the “herbicidal rating STEME” value (Stellaria media [14]; 12.5 g/ha) was 7. For the same molecule, the “herbicidal rating STEME” value (Stellaria media [14]; 25 g/ha) was 7, the “herbicidal rating STEME” value (Stellaria media [14]; 100 g/ha) was 9 and the “herbicidal rating ALOMY” value (Alopecurus myosuroides [15]; 12.5 g/ha) was 0. The “herbicidal rating ALOMY” value (Alopecurus myosuroides [15]; 25 g/ha) was 0, the “herbicidal rating ALOMY” value (Alopecurus myosuroides [15]; 100 g/ha) was 2 and the “control of Alopecurus” value (Alopecurus myosuroides [15]; pre-emergence, 100 g/ha) was “well controlled”. For the same molecule, the “control of the weeds” value [16] was “four out of five broadleaf weeds were well controlled”, the “herbicidal rating ABUTH” value (Abutilon theophrasti [17]; 12.5 g/ha) was 9 and the “herbicidal rating ABUTH” value (Abutilon theophrasti [17]; 25 g/ha) was 9. The “herbicidal rating ABUTH” value (Abutilon theophrasti [17]; 100 g/ha) was 9, the “herbicidal rating ECHCG” value (Echinochloa crus-galli [18]; 12.5 g/ha) was 0 and the “herbicidal rating ECHCG” value (Echinochloa crus-galli [18]; 25 g/ha) was 2. The “herbicidal rating ECHCG” value (Echinochloa crus-galli [18]; 100 g/ha) was 8, the “herbicidal rating GALAP” value (Galium aparine [19]; 12.5 g/ha) was 3 and the “herbicidal rating GALAP” value (Galium aparine [19]; 25 g/ha) was 6. The “herbicidal rating GALAP” value (Galium aparine [19]; 100 g/ha) was 9, the “herbicidal rating ABUTH” value (Abutilon theophrasti [20]; 12.5 g/ha) was 9 and the “herbicidal rating ABUTH” value (Abutilon theophrasti [20]; 25 g/ha) was 9. For the same molecule, the “herbicidal rating ABUTH” value (Abutilon theophrasti [20]; 100 g/ha) was 9, the “herbicidal rating IPOHE” value (Ipomoea hederacea [21]; 12.5 g/ha) was 0 and the “herbicidal rating IPOHE” value (Ipomoea hederacea [21]; 25 g/ha) was 3. For the same molecule, the “herbicidal rating IPOHE” value (Ipomoea hederacea [21]; 100 g/ha) was 7, the “herbicidal rating ECHCG” value (Echinochloa crus-galli [22]; 12.5 g/ha) was 0 and the “herbicidal rating ECHCG” value (Echinochloa crus-galli [22]; 25 g/ha) was 1. The “herbicidal rating ECHCG” value (Echinochloa crus-galli [22]; 100 g/ha) was 6, the “herbicidal rating ZEAMX” value (Zea mays [23]; 12.5 g/ha) was 0 and the “herbicidal rating ZEAMX” value (Zea mays [23]; 25 g/ha) was 1. For the same molecule, the “herbicidal rating ZEAMX” value (Zea mays [23]; 100 g/ha) was 3.

— patent publication US6376426B1, “Herbicidal 3-(heterocycl-1-yl)-uracils” (BASF Aktiengesellschaft, priority 1999, dated 2002)
